This is an account of results in ChEMBL document CHEMBL6074677, “Development of dual V1a/V2 antagonists containing triazolobenzazepine scaffold” (Eur J Med Chem, 2025).

A short description of data set [1]: Metabolic stability in mouse liver microsomes assessed as intrinsic clearance at 1 uM in presence of NADPH. Format: ADME, Microsome. The settings on record: read-out: CLH. (Liver microsomes are a subcellular fraction often used to study metabolism.)
A short description of data set [2]: Apparent permeability across apical to basolateral side in vinblastine treated human Caco-2 cells incubated for 15 to 60 mins by HPLC analysis. Format: ADME, cell-based. To be noted: time 15-60 min. On the technique in general: Passage across Caco-2 layers is used to estimate intestinal permeability.
Another data set concerns the target Vasopressin V1a receptor (Homo sapiens, UniProt P37288). The data set can be described thus: Displacement of [3H]AVP from human vasopressin V1a receptor expressed in human 1321N1 cells assessed as inhibition constant. Format: cell-based. For orientation: Displacement assays read how much labelled ligand stays bound in the presence of the test substance.
Data set [3] deals with Voltage-gated inwardly rectifying potassium channel KCNH2 (Homo sapiens, UniProt Q12809). Description: Inhibition of human ERG expressed in CHO cells at -80 mV holding potential measured for 7 to 10 mins by automated patch clamp method. Format: toxicity, cell-based.
Data set [4] is described as follows: Metabolic stability in human liver microsomes assessed as intrinsic clearance at 1 uM in presence of NADPH. Format: ADME, Microsome. The settings on record: read-out: CLH.
Another data set addresses Vasopressin V2 receptor (Homo sapiens, UniProt P30518). Description: Displacement of [3H]AVP from human vasopressin V2 receptor expressed in human 1321N1 cells assessed as inhibition constant. Format: cell-based.
Data set [5] in a line: Metabolic stability in rat liver microsomes assessed as intrinsic clearance at 1 uM in presence of NADPH. Format: ADME, Microsome. To be noted: read-out: CLH.

As a reminder, the Papp A→B is how fast a substance crosses the layer from the apical side. For orientation: Ki means the dissociation constant of the complex between target and ligand, obtained from inhibition or displacement. What is called IC50 is the concentration that gives 50% inhibition. Lower therefore signals greater potency in that assay.

Chain of Voltage-gated inwardly rectifying potassium channel KCNH2 (Q12809 whole entry): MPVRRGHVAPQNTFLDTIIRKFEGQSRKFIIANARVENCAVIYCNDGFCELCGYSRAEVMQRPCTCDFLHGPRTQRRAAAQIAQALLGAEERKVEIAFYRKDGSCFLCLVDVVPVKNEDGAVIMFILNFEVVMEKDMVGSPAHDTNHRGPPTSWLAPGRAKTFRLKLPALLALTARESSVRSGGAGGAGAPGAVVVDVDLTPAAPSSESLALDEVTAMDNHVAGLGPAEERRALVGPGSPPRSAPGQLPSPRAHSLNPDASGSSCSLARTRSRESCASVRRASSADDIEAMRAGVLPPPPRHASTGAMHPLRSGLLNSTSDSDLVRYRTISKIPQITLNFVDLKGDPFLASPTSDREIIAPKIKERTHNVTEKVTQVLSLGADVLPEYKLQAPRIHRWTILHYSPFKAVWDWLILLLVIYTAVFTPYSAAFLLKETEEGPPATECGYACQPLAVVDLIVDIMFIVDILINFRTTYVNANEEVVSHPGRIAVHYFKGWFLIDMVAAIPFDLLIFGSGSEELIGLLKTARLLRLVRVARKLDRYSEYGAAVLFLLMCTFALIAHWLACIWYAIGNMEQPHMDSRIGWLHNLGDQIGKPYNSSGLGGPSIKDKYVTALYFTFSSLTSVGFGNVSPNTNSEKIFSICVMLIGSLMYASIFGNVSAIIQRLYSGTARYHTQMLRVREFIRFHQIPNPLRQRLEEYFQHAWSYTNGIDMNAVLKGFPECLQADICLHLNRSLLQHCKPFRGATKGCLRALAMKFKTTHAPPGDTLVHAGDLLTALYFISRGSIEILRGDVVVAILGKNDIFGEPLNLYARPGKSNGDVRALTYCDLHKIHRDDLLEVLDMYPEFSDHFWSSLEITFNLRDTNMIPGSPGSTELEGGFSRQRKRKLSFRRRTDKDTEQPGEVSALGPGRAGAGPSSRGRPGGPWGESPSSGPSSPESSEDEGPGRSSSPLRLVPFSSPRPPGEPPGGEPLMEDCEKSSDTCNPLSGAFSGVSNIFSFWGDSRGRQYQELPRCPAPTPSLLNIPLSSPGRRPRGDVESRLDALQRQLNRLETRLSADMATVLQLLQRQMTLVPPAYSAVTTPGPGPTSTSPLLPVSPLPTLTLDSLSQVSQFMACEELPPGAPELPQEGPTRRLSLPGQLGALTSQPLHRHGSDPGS
Chain of Vasopressin V1a receptor (P37288 whole entry): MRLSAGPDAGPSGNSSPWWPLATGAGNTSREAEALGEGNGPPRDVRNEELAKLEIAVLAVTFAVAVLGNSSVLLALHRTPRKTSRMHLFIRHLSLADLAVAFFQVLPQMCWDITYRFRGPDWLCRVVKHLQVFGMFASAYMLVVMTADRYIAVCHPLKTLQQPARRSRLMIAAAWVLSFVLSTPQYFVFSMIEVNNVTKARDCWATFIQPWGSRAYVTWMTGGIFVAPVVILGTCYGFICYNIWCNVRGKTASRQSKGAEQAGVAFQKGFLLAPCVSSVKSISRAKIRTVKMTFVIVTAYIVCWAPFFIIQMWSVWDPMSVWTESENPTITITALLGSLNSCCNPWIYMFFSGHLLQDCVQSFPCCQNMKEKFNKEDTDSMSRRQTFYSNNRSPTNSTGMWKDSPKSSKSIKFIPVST
Chain of Vasopressin V2 receptor (P30518 whole entry): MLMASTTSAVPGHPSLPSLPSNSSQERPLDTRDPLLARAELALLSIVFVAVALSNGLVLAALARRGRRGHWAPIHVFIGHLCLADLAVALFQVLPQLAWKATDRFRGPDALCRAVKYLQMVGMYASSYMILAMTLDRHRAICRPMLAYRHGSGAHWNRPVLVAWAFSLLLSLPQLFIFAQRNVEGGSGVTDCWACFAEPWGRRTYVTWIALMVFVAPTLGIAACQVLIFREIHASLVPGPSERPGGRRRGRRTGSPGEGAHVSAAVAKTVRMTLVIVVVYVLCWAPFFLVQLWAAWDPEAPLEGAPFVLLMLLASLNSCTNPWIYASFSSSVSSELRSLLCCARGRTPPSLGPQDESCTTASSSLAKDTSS

Consider `Clc1ccc2c(c1)CC1(Cc3nnc(N4CCN(c5cccc6c5OCO6)CC4)n3-2)OCCO1`, for which the microsomal CLint at 1 µM in data set [1] is 25.1 µL/min/mg; in data set [4], 8.8 µL/min/mg; in data set [5], 31.7 µL/min/mg. In data set [2], the Papp A→B is 31 ×10⁻⁶ cm/s. Besides, the Ki came out at 0.25 nM on Vasopressin V1a receptor and 0.8 nM on Vasopressin V2 receptor. This compound came in with an IC50 in data set [3] of 11000 nM.

With `Clc1ccc2c(c1)CC1(Cc3nnc(C4CCN(c5cccc6c5OCC6)CC4)n3-2)OCCO1`, the results for the Ki on Vasopressin V1a receptor and on Vasopressin V2 receptor were 0.2 nM and 4 nM, respectively.

As to `NC(=O)C1Cc2cc(Cl)ccc2-n2c(nnc2N2CCC(Oc3ccccn3)CC2)C1` (centres undefined), the microsomal CLint at 1 µM in data set [1] amounted to 6.2 µL/min/mg; in data set [4], 0.5 µL/min/mg; in data set [5], 7.6 µL/min/mg. Besides, the Ki on Vasopressin V1a receptor is 1.4 nM; on Vasopressin V2 receptor, 3620 nM.

`Cc1cccc(N2CCN(c3nnc4n3-c3ccc(Cl)cc3CC(C(N)=O)C4)CC2)c1C` (centres undefined): the microsomal CLint at 1 µM worked out at 9.1 µL/min/mg in data set [1], 5.1 µL/min/mg in data set [4] and 14.5 µL/min/mg in data set [5]. For the same compound, the Ki at Vasopressin V1a receptor was 0.65 nM; on Vasopressin V2 receptor, 13 nM.

As for `Cc1nc2c([nH]1)-c1ccccc1N(C(=O)c1ccc(NC(=O)c3ccccc3-c3ccccc3)cc1)CC2` [CONIVAPTAN], in data set [2], the Papp A→B was 2.9 ×10⁻⁶ cm/s. In data set [3], this compound displayed an IC50 of over 5000 nM.

Regarding `Clc1ccc2c(c1)CC1(Cc3nnc(N4CCC(N5CCCCC5)CC4)n3-2)OCCO1`, the microsomal CLint at 1 µM in data set [1] amounted to 1.15 µL/min/mg; in data set [4], 0.2 µL/min/mg; in data set [5] it was 1.15 µL/min/mg. Moreover, the Papp A→B in data set [2] worked out at 2.4 ×10⁻⁶ cm/s. The Ki on Vasopressin V1a receptor was 2.04 nM; on Vasopressin V2 receptor it was 998 nM.

Consider `Clc1ccc2c(c1)CC1(Cc3nnc(N4CCN(c5nccc6ccsc56)CC4)n3-2)OCCO1`, for which the microsomal CLint at 1 µM in data set [1] was determined as 83.3 µL/min/mg; in data set [4] it was 24.3 µL/min/mg; in data set [5], 141 µL/min/mg. Also, the Ki on Vasopressin V1a receptor was determined as 0.14 nM; on Vasopressin V2 receptor, 6.5 nM.

For the compound `Clc1ccc2c(c1)CC1(Cc3nnc(N4CCN(c5ncccc5Cl)CC4)n3-2)OCCO1`, the results for the microsomal CLint at 1 µM in data set [1], in data set [4] and in data set [5] were 58.5 µL/min/mg, 10.6 µL/min/mg and 51 µL/min/mg, respectively. The results for the Ki on Vasopressin V1a receptor and at Vasopressin V2 receptor were 0.26 nM and 1.2 nM, respectively.

For `OC1Cc2cc(Cl)ccc2-n2c(nnc2N2CCN(c3cccc4c3OCC4)CC2)C1` (centres undefined), the microsomal CLint at 1 µM in data set [1] was 14.3 µL/min/mg; in data set [4] it was 13.5 µL/min/mg; in data set [5], 26.2 µL/min/mg. The Ki at Vasopressin V1a receptor is 1.4 nM; at Vasopressin V2 receptor it was 11 nM.

Regarding `Cc1ccccc1C(=O)Nc1ccc(C(=O)N2CCCC(O)c3cc(Cl)ccc32)c(C)c1` (centres undefined) [TOLVAPTAN], the microsomal CLint at 1 µM in data set [1] stood at 32 µL/min/mg; in data set [4], 12 µL/min/mg; in data set [5], 168 µL/min/mg. The Papp A→B in data set [2] is 46.7 ×10⁻⁶ cm/s.

Turning to `Clc1ccc2c(c1)CC1(Cc3nnc(N4CCC(c5cccc6c5OCO6)CC4)n3-2)OCCO1`, the figures for the Ki on Vasopressin V1a receptor and at Vasopressin V2 receptor were 0.2 nM and 0.9 nM, respectively.

`Clc1ccc2c(c1)CC1(Cc3nnc(N4CCC(c5cccc6c5OCC6)CC4)n3-2)OCCO1`: the Ki on Vasopressin V1a receptor stood at 0.2 nM; at Vasopressin V2 receptor it was 0.7 nM.

`O=C1c2ccccc2CCN1C1CCN(c2nnc3n2-c2ccc(Cl)cc2CC2(C3)OCCO2)CC1`: the Ki was 0.25 nM at Vasopressin V1a receptor and 13 nM at Vasopressin V2 receptor.

Regarding `Clc1ccc2c(c1)CC1(Cc3nnc(N4CCN(c5nccc6ccoc56)CC4)n3-2)OCCO1`, the microsomal CLint at 1 µM in data set [1] worked out at 44.6 µL/min/mg; in data set [4], 18 µL/min/mg; in data set [5] it was 110 µL/min/mg. For the same compound, the Ki is 0.28 nM on Vasopressin V1a receptor and 21 nM at Vasopressin V2 receptor.

Turning to `NC(=O)C1Cc2cc(Cl)ccc2-n2c(nnc2N2CCC(N3CCCCC3)CC2)C1` (centres undefined), the microsomal CLint at 1 µM in data set [1], in data set [4] and in data set [5] was 0.2 µL/min/mg throughout. For the same compound, the Ki on Vasopressin V1a receptor was 98 nM.

Regarding `Clc1ccc2c(c1)CC1(CCCO1)Cc1nnc(N3CCN(c4cccc5c4OCC5)CC3)n1-2` (centres undefined), the figures for the inhibition constant Ki on Vasopressin V1a receptor and at Vasopressin V2 receptor were 1.4 nM and 5.1 nM, respectively.

Regarding `Clc1ccc2c(c1)CC1(Cc3nnc(N4CCN(c5cccc6c5COC6)CC4)n3-2)OCCO1`, the microsomal CLint at 1 µM was 30.5 µL/min/mg in data set [1], 17 µL/min/mg in data set [4] and 29.4 µL/min/mg in data set [5]. In addition, the Ki on Vasopressin V1a receptor came out at 0.5 nM; at Vasopressin V2 receptor, 2.8 nM. The IC50 in data set [3] came out at 7900 nM.

Take `Clc1ccc2c(c1)CC1(Cc3nnc(C4CCN(c5cccc6c5CCO6)CC4)n3-2)OCCO1`: the Ki worked out at 0.3 nM on Vasopressin V1a receptor and 26 nM at Vasopressin V2 receptor.

`CC1(C)Cc2cccc(N3CCN(c4nnc5n4-c4ccc(Cl)cc4CC4(C5)OCCO4)CC3)c2O1`: the values for the microsomal CLint at 1 µM in data set [1], in data set [4] and in data set [5] were 99.5 µL/min/mg, 107 µL/min/mg and 113 µL/min/mg, respectively. Besides, the Ki on Vasopressin V1a receptor was determined as 0.82 nM; on Vasopressin V2 receptor, 24 nM.

As for `NC(=O)C1Cc2cc(Cl)ccc2-n2c(nnc2N2CCC3(CC2)OCc2ccccc23)C1` (centres undefined), the Ki at Vasopressin V1a receptor was 2.1 nM; on Vasopressin V2 receptor, 327 nM.

Consider `COC1(c2ccccc2)CCN(c2nnc3n2-c2ccc(Cl)cc2CC(C(N)=O)C3)CC1` (centres undefined), for which the microsomal CLint at 1 µM worked out at 13.9 µL/min/mg in data set [1], 3 µL/min/mg in data set [4] and 7.1 µL/min/mg in data set [5]. The Ki at Vasopressin V1a receptor worked out at 1.3 nM; at Vasopressin V2 receptor, 1610 nM.

As for `Clc1ccc2c(c1)CC1(Cc3nnc(N4CCC(Oc5ccccn5)CC4)n3-2)OCCO1`, the results for the microsomal CLint at 1 µM in data set [1], in data set [4] and in data set [5] were 28.4 µL/min/mg, 10.9 µL/min/mg and 33.3 µL/min/mg, respectively. Also, in data set [2], the Papp A→B was 40.4 ×10⁻⁶ cm/s. The compound also showed an IC50 in data set [3] of 8200 nM. Further, the Ki on Vasopressin V2 receptor was 20 nM.

As to `Clc1ccc2c(c1)CC1(Cc3nnc(C4CCN(c5cccc6c5COC6)CC4)n3-2)OCCO1`, the values for the Ki at Vasopressin V1a receptor and on Vasopressin V2 receptor were 0.21 nM and 26 nM, respectively.

For the compound `Clc1ccc2c(c1)CC1(Cc3nnc(N4CCN(c5ccccn5)CC4)n3-2)OCCO1`, the microsomal CLint at 1 µM in data set [1] came to 21.7 µL/min/mg; in data set [4], 9.1 µL/min/mg; in data set [5] it was 25.4 µL/min/mg. Also, the Papp A→B in data set [2] was 39.9 ×10⁻⁶ cm/s. For the same compound, at Vasopressin V2 receptor, the inhibition constant (Ki) came to 4.7 nM.

As for `COc1ccccc1N1CCN(c2nnc3n2-c2ccc(Cl)cc2CC2(C3)OCCO2)CC1`, the Ki was determined as 0.4 nM at Vasopressin V1a receptor and 2 nM at Vasopressin V2 receptor.

With `NC(=O)C1Cc2cc(Cl)ccc2-n2c(nnc2N2CCN(c3cccc(Cl)c3)CC2)C1` (centres undefined), the figures for the microsomal CLint at 1 µM in data set [1], in data set [4] and in data set [5] were 9.2 µL/min/mg, 3.7 µL/min/mg and 7 µL/min/mg, respectively. The figures for the inhibitory constant (Ki) at Vasopressin V1a receptor and on Vasopressin V2 receptor were 7.7 nM and 259 nM, respectively.

With `Clc1ccc2c(c1)CC1(CCOCC1)Cc1nnc(N3CCN(c4cccc5c4OCC5)CC3)n1-2`, the microsomal CLint at 1 µM in data set [1] was 70.7 µL/min/mg; in data set [4], 78.3 µL/min/mg; in data set [5] it was 48.2 µL/min/mg. Moreover, the results for the Ki on Vasopressin V1a receptor and on Vasopressin V2 receptor were 0.41 nM and 1.1 nM, respectively.

Turning to `Clc1ccc2c(c1)CC1(Cc3nnc(N4CCC5(CC4)OCc4ccccc45)n3-2)OCCO1`, the microsomal CLint at 1 µM in data set [1] was found to be 194 µL/min/mg; in data set [4] it was 12 µL/min/mg; in data set [5] it was 166 µL/min/mg. The Ki on Vasopressin V2 receptor is 1.6 nM.

As to `Cc1ccccc1C(=O)NC1CCN(c2nnc3n2-c2ccc(Cl)cc2CC2(C3)OCCO2)CC1`, the Ki on Vasopressin V1a receptor turned out to be 0.35 nM; at Vasopressin V2 receptor, 9 nM.
